These results are taken from patent publication US7846434B2, “Materials and methods for improved immunoglycoproteins” (Trubion Pharmaceuticals, Inc., priority 2006, dated 2010).

One assay has as its system CD16 (Fcγ RIII). The experiment in a line: Binding of SMIP bound on WIL2-S cells to soluble FcγR-MIg fusion (CD16), flow cytometry. Particulars: CHO cells cultured with kifunensine 0, 0.5, 1, 3, 5 or 10 μM.
For a further assay, the system named is BJAB B cells. Briefly: ADCC, 51Cr-labeled BJAB B cells with human PBMC effectors. The format is cell-based. The following applies: culture media containing 200 μM DMJ, 10 μM kifenunsine or 200 μM castanospermine. Here is the method: To determine the ADCC activity of purified TRU-016, labeled BJAB B cells were used as targets and human peripheral blood mononuclear cells (PBMC) as effector cells. BJAB B cells (10^7 cells) were labeled with 500 μCi/mL ^51Cr sodium chromate for 2 hours at 37° C. in IMDM/10% FBS. PBMCs were isolated from heparinized, human whole blood by fractionation over Lymphocyte Separation Media (LSM, ICN Biomedical) gradients. Reagent samples were added to RPMI media with 10% FBS and serial dilutions of each reagent were prepared. The ^51Cr labeled BJAB were added at 2×10^4 cells/well. The PBMCs were then added at 5×10^5 cells/well for a final ratio of 25:1 effectors (PBMC):targets (BJAB). Reactions were set up in quadruplicate wells of a 96 well plate. Reactions were allowed to proceed for 6 hours at 37° C. in 5% CO2 prior to harvesting and counting. CPM released was measured on a Packard TopCounNXT from 50 μl dried culture supernatant. Percent specific killing was calculated by subtracting (cpm [mean of quadruplicate samples] of sample−cpm spontaneous release)/(cpm maximal release−cpm spontaneous release)×100, and data were plotted as % specific killing versus TRU-016 concentration.

The subject of the next assay is Ramos cells. Briefly: Ramos tumor model in nude mice. Format: in vivo. The following applies: for Median Survival Time: 200 μg i.v. on days 0, 2, 4, 6 and 8. Here is the method: Nude mice are administered 5×10^6 Ramos cells subcutaneously on day 0 and injected intravenously with 200 μg control human IgG or TRU-016 test protein produced by CHO cells treated with 200 μM DMJ, 10 μM kifenunsine or 200 μM castanospermine on days 0, 2, 4, 6, and 8. Mice typically develop tumors within 6 days and die shortly thereafter. Tumors are measured three times weekly with digital calipers and LabCat software, and tumor volume is calculated as […]. Body weight is also determined once a week.
Mice are sacrificed when the tumor reaches 1500 mm^3 in size (1200 mm^3 on Fridays). Mice are also sacrificed if ulceration of a tumor occurs, the tumor inhibits the mobility of animal, or if weight loss equals or exceeds 20%.

Assay [1] has as its target T1, CD37 cell surface receptor (Homo sapiens, UniProt P11049).
T1 construct: Human PBMCs are isolated over LSM density gradients and incubated with unconjugated TRU-016; endogenous in cells; host or cells: human PBMCs, gated for CD19+ B lymphocytes
T1 sequence (P11049 1-281): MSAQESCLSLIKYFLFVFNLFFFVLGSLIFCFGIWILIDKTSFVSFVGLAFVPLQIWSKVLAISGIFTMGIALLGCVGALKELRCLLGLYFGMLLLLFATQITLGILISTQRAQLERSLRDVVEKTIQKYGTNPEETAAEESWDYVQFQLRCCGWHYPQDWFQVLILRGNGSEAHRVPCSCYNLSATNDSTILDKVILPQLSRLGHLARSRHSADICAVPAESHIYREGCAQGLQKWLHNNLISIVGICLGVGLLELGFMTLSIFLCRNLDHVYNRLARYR
The experiment in a line: TRU-016 binding to human PBMC B lymphocytes by two-color flow cytometry. The procedure:
Experiments may be performed to confirm that the binding specificity of the parent antibody to the CD37 cell surface receptor is preserved in TRU-016. Human PBMCs are isolated over LSM density gradients and incubated with unconjugated TRU-016 and PE-conjugated anti-human CD19. Cells are washed and incubated with 1:100 FITC GAH IgG (Fc specific) for 45 minutes on ice. Cells are washed and analyzed by two-color flow cytometry on a FACsCalibur instrument using Cell Quest software. Cells are gated for B lymphocytes or non-B lymphocytes by CD19 staining.

The next assay has as its system Ramos B cells. The experiment in a line: CDC, Ramos B cells with human serum, propidium iodide. Format: cell-based. Particulars: TRU-016 from CHO cells cultured with 200 μM DMJ, 10 μM kifenunsine or 200 μM castanospermine. Here is the method:
To determine the CDC activity of TRU-016 purified protein produced according to Example 2, Ramos B cells were suspended in Iscoves (Gibco/Invitrogen, Grand Island, N.Y.) at 5×10^5 cells/well in 75 μl. TRU-016 (75 μl) were added to the cells at twice the concentrations indicated. Binding reactions were allowed to proceed for 45 minutes prior to centrifugation and washing in serum-free Iscoves. Cells were resuspended in Iscoves with human serum (containing complement) at various concentrations. The cells were incubated 60 minutes at 37° C. Cells were washed by centrifugation and resuspended in staining media with 0.5 μg/ml propidium iodide. Samples were incubated 15 minutes at room temperature in the dark prior to analysis by flow cytometry using a FACsCalibur and CellQuest software (Becton Dickinson).

Another assay has as its system CD16. Briefly: CD16 assays on sera of mice administered TRU-016. Format: binding. The following applies: sera at 48, 72, 96 and 192 hours after administration of carbohydrate-modified TRU-016.
Assay [2] relates to CD37-expressing Daudi cancer B-cell line. Briefly: ADCC, 51Cr-labeled Daudi target cells with human PBL effector cells. The format is cell-based. The following applies: treated with CS over a range of 100 μM-800 μM final concentration. The procedure:
TRU-016 produced as described in Example 8 is incubated with the CD37-expressing Daudi cancer B-cell line in conjunction with primary human peripheral blood lymphocytes (PBL's) effector cells to assess ADCC activity.
Daudi target cells (5×10^6) are added to a 15 ml conical tube and then centrifuged at 250×g for 5 minutes at 20° C. and the supernatant removed. The cell pellet is resuspended by the addition of 0.3 mCi Chromium-51 (^51Cr, GE Healthcare, CJ51). The cells are incubated for 75 minutes at 37° C. with 5% CO2, allowing the cells to incorporate the radioactive isotope. The cells are then washed three times to remove any unincorporated ^51 Cr. This is done by adding 10 mL of complete media—IMDM (Gibco) with 10% FBS (Gibco)—to the tube, centrifuging at 250×g for 5 minutes at 20° C. followed by removal of supernatant. The final resuspension is in 11.5 mL of complete media. TRU-016 is diluted in complete media, at concentrations that are able to generate maximal to background levels of cell lysis (500 ng/mL-0.005 ng/mL). These titrations are plated out, 50 μL/well, in a round bottom 96 well plate. The ^51Cr labeled target cells are added to the dose titrations of TRU-016 at 50 μL/well and the control wells (control media without TRU-016). PBL's are isolated from fresh heparinized whole blood by density gradient centrifugation using Lymphocyte Separation Media as per protocol (LSM, MP Biomedical, 50494/36427). […] The assay is incubated for 4.5-5 hours at 37° C., 5% CO2. The effector cells lyse the target cells relative to the TRU-016 concentration, releasing a proportional amount of ^51Cr into the assay supernatant. Following the incubation the plate is centrifuged at 250×g for 3 minutes at 20° C. A 25 μL volume of cell-free supernatant is removed from all wells to a scintillation plate (Perkin Elmer 6005185) and dried overnight. The amount of ^51Cr isotope in each well of the scintillation plate is measured using a Topcount plate reader (Perkin Elmer, C9904VO). The data are expressed as percent of specific release. Specific release is calculated as: (Sample value−Spontaneous value)/(Maximum value−Spontaneous value)*100% Spontaneous=amount of ^51Cr released from target cell only Maximum release=amount of ^51Cr released from targets treated with detergent lysing agent Background Control=amount of ^51Cr released from target cells+effector cells(No TRU-016)
A dose response is generated and fit to a 4-parameter logistic curve using SoftMax Pro software (Molecular Devices, ver 5.0.1). Titrations of TRU-016 are utilized to create dose response curves of test and reference material for comparison. The EC50 values for the treated articles are compared to the untreated control (no CS) to determine the percent increase in ADCC activity.

[3] abbreviates: TRU-016 from CHO cells treated with 200 μM DMJ, 10 μM kifenunsine or 200 μM castanospermine.

Consider `O=C1N[C@@H]2[C@@H](O)[C@@H](O)[C@H](O)[C@@H](CO)N2C1=O` [kifunensine, Kifunensine], for which the “CD16 binding of TRU-016 supernatant (mean fluorescence intensity)” value in the assay on CD16 (Fcγ RIII) is “greatly increased”. The “ADCC of TRU-016 purified protein (% specific killing)” value in the assay on BJAB B cells is recorded as “improved”.
For the molecule “CS TRU-016: TRU-016 produced by CHO cells treated with 200 μM castanospermine”, in the assay with Ramos cells, the “Median Survival Time” value was found to be 13 days.
Take “TRU-016: [G28-1 scFv VH11S (SSC-P)H WCH2 WCH3] recombinant single chain protein (SMIP) that binds to the CD37 antigen; SEQ ID NO: 2”: in assay [1] (CD19 positive gate), the “TRU-016 concentration at saturation of FITC signal on B lymphocytes” value is listed as “approximately 1 μg/mL” and the “mean fluorescence intensity (MFI) at saturation” value is reported as roughly 1000. The “staining of the non-B lymphocyte population” value in assay [1] (non-B lymphocyte gate) is on record as “detectable, but very low”. Also, in the assay with Ramos B cells, the “CDC versus protein produced by untreated CHO cells” value was “similar”. In the assay on CD16, the “CD16 binding activity of sera containing TRU-016” value is “retained its increased CD16 binding activity”. In the assay with Ramos cells (setting [3]), the mean survival time result was “increase mean survival time” and the tumor volume entry is reported as “reduce tumor volume”. In addition, the “ADCC activity relative to untreated TRU-016” value in assay [2] was “significantly increased”.

B1: Kifu TRU-016: TRU-016 produced by CHO cells treated with 10 μM kifenunsine (antibody, chains of the INN, looked up, V domains shown)
VH: EVQLVQSGAEVKKPGESLKISCKGSGYSFTGYNMNWVRQMPGKGLEWMGNIDPYYGGTTYNRKFKGQVTISADKSISTAYLQWSSLKASDTAMYYCARSVGPFDSWGQGTLVTVSS
VL: EIVLTQSPATLSLSPGERATLSCRASENVYSYLAWYQQKPGQAPRLLIYFAKTLAEGIPARFSGSGSGTDFTLTISSLEPEDFAVYYCQHHSDNPWTFGQGTKVEIK
modifications: altered glycosylation (kifunensine-treated CHO)
notes: TRU-016 produced by CHO cells treated with 10 μM kifenunsine
With B1, the “Median Survival Time” value in the assay with Ramos cells stood at 10 days.
